Assay results as given in patent US8518912B2, “Phosphonic acid derivates and their use as P2Y12 receptor antagonists” (Actelion Pharmaceuticals Ltd., priority 2008, dated 2013).

Target: T1, human P2Y12 receptor (Homo sapiens, UniProt Q9H244)
T1 construct: expressed in transfected cells; host or cells: Chinese Hamster Ovary (CHO) cells
Assay: P2Y12 receptor binding assay
Conditions: CHO cells with recombinant human P2Y12 receptor; tritium-labeled 2-methyl-S-ADP; 2 hours at RT
Procedure: Chinese Hamster Ovary (CHO) cells with recombinant expression of the human P2Y12 receptor were cultured in 24 well cell-culture plates. Cells were washed three times with binding buffer (50 mM Tris pH 7.4, 100 mM NaCl, […], 0.5% BSA). The cells were then incubated with 0.5 ml per well binding buffer containing tritium-labeled 2-methyl-thio-adenosine 5′-diphosphate (2-methyl-S-ADP) (between 100,000 and 300,000 dpm per well) and various concentrations of test compounds. After incubation at RT for 2 hours, cells were washed three times with binding buffer. Then, cells were solubilized by addition of 0.5 ml solubilization buffer (SDS, NaOH, EDTA). The content of each well was then transferred into beta-counter vials and 2.0 ml of Ultima Gold Scintillation liquid was added.

T1 sequence (Q9H244 whole entry): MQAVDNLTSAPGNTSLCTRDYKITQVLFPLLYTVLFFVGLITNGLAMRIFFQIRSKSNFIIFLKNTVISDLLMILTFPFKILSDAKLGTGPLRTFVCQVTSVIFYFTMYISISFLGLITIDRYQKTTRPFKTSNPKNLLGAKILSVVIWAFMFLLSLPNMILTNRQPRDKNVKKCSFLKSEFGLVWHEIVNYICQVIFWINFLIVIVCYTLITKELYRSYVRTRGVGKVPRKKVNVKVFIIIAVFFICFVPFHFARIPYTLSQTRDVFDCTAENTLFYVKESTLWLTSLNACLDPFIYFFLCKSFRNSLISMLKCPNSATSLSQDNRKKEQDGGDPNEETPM

| IC50 [nM] | SMILES |
| --- | --- |
| 3.1 | CCCCOC(=O)N1CCN(C(=O)[C@H](CP2(=O)Nc3ccccc3CO2)NC(=O)c2cc(N3CC[C@H](OC)C3)nc(-c3ccccc3)n2)CC1 (mixture of isomers) [Example 103, 4-[(R)-2-{[6-((S)-3-Methoxy-pyrrolidin-1-yl)-2-phenyl-pyrimidine-4-carbonyl]-amino}-3-(2-oxo-1,4-dihydro-2H-2λ^5-benzo[d][1,3,2]oxazaphosphinin-2-yl)-propionyl]-piperazine-1-carboxylic acid butyl ester] |
| 3.2 | CCCCOC(=O)N1CCN(C(=O)[C@H](CCP(=O)(O)O)NC(=O)c2cc(-n3cccn3)nc(-c3ccccc3)n2)CC1 [Example 7, 4-{(S)-2-[(2-phenyl-6-pyrazol-1-yl-pyrimidine-4-carbonyl)-amino]-4-phosphono-butyryl}-piperazine-1-carboxylic acid butyl ester] |
| 5.9 | CCCCOC(=O)N1CCN(C(=O)[C@H](CCP(=O)(O)O)NC(=O)c2cc(N3CCOCC3)nc(-c3ccccc3)n2)CC1 [Example 12, 4-{(S)-2-[(6-morpholin-4-yl-2-phenyl-pyrimidine-4-carbonyl)-amino]-4-phosphono-butyryl}-piperazine-1-carboxylic acid butyl ester] |
| 4.5 | CCCCOC(=O)N1CCN(C(=O)[C@H](CP(=O)(O)O)NC(=O)c2cc(NCC)nc(-c3ccccc3)n2)CC1 [Example 16, 4-{(R)-2-[(6-ethylamino-2-phenyl-pyrimidine-4-carbonyl)-amino]-3-phosphono-propionyl}-piperazine-1-carboxylic acid butyl ester] |
| 78 | CCCCOC(=O)N1CCN(C(=O)[C@H](CCP(=O)(O)O)NC(=O)c2cc(N3CC[C@H](OC)C3)nc(-c3cccc(F)c3)n2)CC1 [Example 21, 4-((S)-2-{[2-(3-fluoro-phenyl)-6-((S)-3-methoxy-pyrrolidin-1-yl)-pyrimidine-4-carbonyl]-amino}-4-phosphono-butyryl)-piperazine-1-carboxylic acid butyl ester] |
| 13 | CCCCOC(=O)N1CCN(C(=O)[C@H](CP(=O)(O)O)NC(=O)c2cc(-c3ccc(OC)cc3)nc(-c3ccccc3)n2)CC1 [Example 34, 4-((R)-2-{[6-(4-methoxy-phenyl)-2-phenyl-pyrimidine-4-carbonyl]-amino}-3-phosphono-propionyl)-piperazine-1-carboxylic acid butyl ester] |
| 14 | CCCCOC(=O)N1CCN(C(=O)[C@H](CP(=O)(O)O)NC(=O)c2cc(C3CC3)nc(-c3ccccc3)n2)CC1 [Example 35, 4-{(R)-2-[(6-cyclopropyl-2-phenyl-pyrimidine-4-carbonyl)-amino]-3-phosphono-propionyl}-piperazine-1-carboxylic acid butyl ester] |
| 78 | CCCCOC(=O)N1CCN(C(=O)[C@H](CP(=O)(O)O)NC(=O)c2cc(O[C@H]3CCOC3)nc(-c3ccccc3)n2)CC1 [Example 37, 4-[(R)-2-({2-phenyl-6-[(S)-(tetrahydro-furan-3-yl)oxy]-pyrimidine-4-carbonyl}-amino)-3-phosphono-propionyl]-piperazine-1-carboxylic acid butyl ester] |
| 61 | CCOC(=O)N1CCN(C(=O)[C@H](CP(=O)(O)O)NC(=O)c2cc(N3CC[C@H](OC)C3)nc(-c3ccccc3)n2)CC1C (stereo partly drawn) [Example 38, 4-((R)-2-{[6-((S)-3-methoxy-pyrrolidin-1-yl)-2-phenyl-pyrimidine-4-carbonyl]-amino}-3-phosphono-propionyl)-2-methyl-piperazine-1-carboxylic acid ethyl ester] |
| 5.5 | CCCCOC(=O)N1CCN(C(=O)[C@H](CP(=O)(O)O)NC(=O)c2cc(CCCOC)nc(-c3ccccc3)n2)CC1 [Example 45, 4-((R)-2-{[6-(3-methoxy-propyl)-2-phenyl-pyrimidine-4-carbonyl]-amino}-3-phosphono-propionyl)-piperazine-1-carboxylic acid butyl ester] |
| 49 | CCCCOC(=O)N1CCN(C(=O)[C@H](CCP(=O)(OCOC(=O)C(C)(C)C)OCOC(=O)C(C)(C)C)NC(=O)c2cc(N3CC[C@H](OC)C3)nc(-c3ccccc3)n2)CC1 [Example 48, 4-((S)-4-[bis-(2,2-dimethyl-propionyloxymethoxy)-phosphoryl]-2-{[6-((S)-3-methoxy-pyrrolidin-1-yl)-2-phenyl-pyrimidine-4-carbonyl]-amino}-butyryl)-piperazine-1-carboxylic acid butyl ester] |
| 162 | CCCCOC(=O)N1CCN(C(=O)C(NC(=O)c2cc(N3CC[C@H](OC)C3)nc(-c3ccccc3)n2)P(=O)(O)O)CC1 (stereo partly drawn) [Example 56, 4-(2-{[6-((S)-3-methoxy-pyrrolidin-1-yl)-2-phenyl-pyrimidine-4-carbonyl]-amino}-2-phosphono-acetyl)-piperazine-1-carboxylic acid butyl ester] |
| 7.5 | CCOC(=O)N1CCN(C(=O)[C@H](Cc2ccc(CP(=O)(O)O)cc2)NC(=O)c2cc(N3CC[C@H](OC)C3)nc(-c3ccccc3)n2)CC1 [Example 61, 4-[(S)-2-{[6-((S)-3-Methoxy-pyrrolidin-1-yl)-2-phenyl-pyrimidine-4-carbonyl]-amino}-3-(4-phosphonomethyl-phenyl)-propionyl]-piperazine-1-carboxylic acid ethyl ester] |
| 69 | CCCCOC(=O)N1CCN(C(=O)[C@@H](CCCP(=O)(O)O)NC(=O)c2cc(N3CC[C@H](OC)C3)nc(-c3ccccc3)n2)CC1 [Example 63, 4-((R)-2-{[6-((S)-3-Methoxy-pyrrolidin-1-yl)-2-phenyl-pyrimidine-4-carbonyl]-amino}-5-phosphono-pentanoyl)-piperazine-1-carboxylic acid butyl ester] |
| 13 | CCOC(=O)N1CCN(C(=O)[C@H](Cc2cccc(P(=O)(O)O)c2)NC(=O)c2cc(N3CC[C@H](OC)C3)nc(-c3ccccc3)n2)CC1 [Example 67, 4-[(S)-2-{[6-((S)-3-Methoxy-pyrrolidin-1-yl)-2-phenyl-pyrimidine-4-carbonyl]-amino}-3-(3-phosphono-phenyl)-propionyl]-piperazine-1-carboxylic acid ethyl ester] |
| 4.5 | CCCCOC(=O)N1CCN(C(=O)C(NC(=O)c2cc(N3CC[C@H](OC)C3)nc(-c3ccccc3)n2)c2cccc(P(=O)(O)O)c2)CC1 (stereo partly drawn) [Example 71, 4-[2-{[6-((S)-3-Methoxy-pyrrolidin-1-yl)-2-phenyl-pyrimidine-4-carbonyl]-amino}-2-(3-phosphono-phenyl)-acetyl]-piperazine-1-carboxylic acid butyl ester] |
| 3 | CCCCOC(=O)N1CCN(C(=O)[C@H](CP(=O)(O)O)NC(=O)c2cc(N3CCN(C)CC3)nc(-c3ccccc3)n2)CC1 [Example 73, 4-((R)-2-{[6-(4-Methyl-piperazin-1-yl)-2-phenyl-pyrimidine-4-carbonyl]-amino}-3-phosphono-propionyl)-piperazine-1-carboxylic acid butyl ester] |

| SMILES | IC50 [nM] |
| --- | --- |
| CCCCOC(=O)N1CCN(C(=O)[C@H](CP2(=O)OCc3cccc(C)c3O2)NC(=O)c2cc(N3CC[C@H](OC)C3)nc(-c3ccccc3)n2)CC1 (mixture of isomers) [Example 110, 4-[(R)-2-{[6-((S)-3-Methoxy-pyrrolidin-1-yl)-2-phenyl-pyrimidine-4-carbonyl]-amino}-3-(8-methyl-2-oxo-4H-2λ^5-benzo[1,3,2]dioxaphosphinin-2-yl)-propionyl]-piperazine-1-carboxylic acid butyl ester] | 2.8 |
| CCCCOC(=O)N1CCN(C(=O)[C@H](CP(=O)(O)OCOC(C)=O)NC(=O)c2cc(N3CC[C@H](OC)C3)nc(-c3ccccc3)n2)CC1 (mixture of isomers) [Example 115, 4-((R)-3-(Acetoxymethoxy-hydroxy-phosphoryl)-2-{[6-((S)-3-methoxy-pyrrolidin-1-yl)-2-phenyl-pyrimidine-4-carbonyl]-amino}-propionyl)-piperazine-1-carboxylic acid butyl ester] | 5 |
| CCCCOC(=O)N1CCN(C(=O)[C@H](CCP(=O)(NCC(=O)OCC)NCC(=O)OCC)NC(=O)c2cc(N3CC[C@H](OC)C3)nc(-c3ccccc3)n2)CC1 [Example 75, N,N′-Bis-(ethoxycarbonylmethyl)-3-{(S)-[6-((S)-3-methoxy-pyrrolidin-1-yl)-2-phenyl-pyrimidine-4-carbonyl]-amino}-4-oxo-4-(4-butoxy-carbonyl-piperazin-1-yl)-butyl-phosphonic acid diamide] | 308 |
| CCCCOC(=O)N1CCN(C(=O)[C@H](CP(=O)(OCOC(=O)CCC)OCOC(=O)CCC)NC(=O)c2cc(N3CC[C@H](OC)C3)nc(-c3ccccc3)n2)CC1 [Example 78, 4-((R)-3-(Bis-butyryloxymethoxy-phosphoryl)-2-{[6-((S)-3-methoxy-pyrrolidin-1-yl)-2-phenyl-pyrimidine-4-carbonyl]-amino}-propionyl)-piperazine-1-carboxylic acid butyl ester] | 7 |
| CCCCOC(=O)N1CCN(C(=O)[C@H](CP(=O)(N[C@@H](Cc2ccccc2)C(=O)OC)N[C@@H](Cc2ccccc2)C(=O)OC)NC(=O)c2cc(N3CC[C@H](OC)C3)nc(-c3ccccc3)n2)CC1 [Example 87, N,N′-Bis-((S)-1-methoxycarbonyl-2-phenyl-ethyl)-2-{(R)-[6-((S)-3-methoxy-pyrrolidin-1-yl)-2-phenyl-pyrimidine-4-carbonyl]-amino}-3-oxo-3-(4-butoxy-carbonyl-piperazin-1-yl)-propyl-phosphonic acid diamide] | 11 |
